Where no end group is shown, it is not given here. The star is where a group is joined. Octanoyl = CCCCCCCC(=O)*
Tests used:
[1] = test system: skin cell of rat fetus; assay: Intracellular calcium increasing activity in single cultured skin cell of rat fetus (Fura-2 calcium imaging); format: cell-based; conditions: for cell response in calcium imaging (FIG. 1 curves): single fetal rat skin cell, ghrelin and desacyl ghrelin added to different cells, concentration not given
Protocol: A Wistar rat on the 17th day of pregnancy underwent laparotomy under anesthesia for fetus extraction. A small piece of skin was collected from the fetus, treated with collagenase in cold Hank's solution, digested with papain, and mechanically separated by pipetting. This gave a dispersion liquid of the fetal skin cells. A single cell was obtained from the dispersion liquid, ghrelin was added thereto, and calcium imaging was performed. For the calcium imaging, a calcium imaging device (IMACS, Hamamatsu Photonics) was used. That is, the ratio of the emission at a wavelength of 510 nm was measured when excitation was performed by 340 nm/380 nm light. Fura-2 was used as a calcium imaging agent. Desacyl ghrelin derived from a rat (SEQ ID NO: 3) was used.
In FIG. 1, I, II and III are the points at which a photograph was taken, but the photographs are omitted from the present description. […] Ghrelin and desacyl ghrelin were added to different cells, respectively.
It was shown that a receptor that responds to desacyl ghrelin existed in the skin cell of the rat fetus, and that addition of desacyl ghrelin increased intracellular calcium, inducing the activity of desacyl ghrelin.

[2] = test system: cultured fetal skin cell; assay: Proliferation activity in cultured fetal skin cell (BrdU uptake, Proliferation ELISA); format: cell-based, rat; conditions: 24 hours incubation, BrdU 10 μM, versus control medium, FIG. 2
Protocol: The skin cells of a rat fetus were collected from a Wistar rat on the 17th day of pregnancy, and a dispersion liquid thereof was obtained in the same manner as in Example 1. The dispersed cells were suspended in a MCDB153HAA medium (F-Peptide Co., Ltd., Yamagata, Japan) containing 2% fetal bovine serum, penicillin (100 U/mL), streptomycin (100 μg/mL) and epidermal growth factor EGF (5 ng/mL), and sowed on a polyethyleneimine coated 96-hole multi-well plate in an amount of 3×10^4 cells/well. Desacyl ghrelin (0.05 to 500 μmol/mL (nM)) or desacyl ghrelin (1-15)-NH2 (SEQ ID NO: 22) (0.001 to 1 μmol/mL (nM)) and 5-bromo-2′-deoxyuridine (BrdU) (10 μM) were added thereto, which was then incubated for 24 hours. A medium containing neither desacyl ghrelin nor desacyl ghrelin (1-15)-NH2 was used as a control. After the culture was over, cells were collected, and then uptake quantity of BrdU into the fetal skin cell was measured using Proliferation ELISA Kit (Roche Diagnostic GmbH. Manheim, Germany) to consider the skin cell growth activity.
Uptake of BrdU increased when desacyl ghrelin or desacyl ghrelin (1-15)-NH2 acted on a cultured fetal skin cell.

| Substance | cell response in calcium imaging (FIG. 1 curves) [1] | uptake of BrdU into the fetal skin cell ([2]; desacyl ghrelin (1-15)-NH2 0.001 to 1 μmol/mL (nM)) | uptake of BrdU into the fetal skin cell ([2]; desacyl ghrelin 0.05 to 500 μmol/mL (nM)) | intracellular calcium ([1]; 1×10^−6 M, skin cell of a single rat fetus, Fura-2 ratio 340 nm/380 nm, FIG. 1) |
| --- | --- | --- | --- | --- |
| ghrelin: 28-residue peptide hormone, third amino acid from the N terminus acylated with fatty acid (n-octanoyl); acts on GHS-R1a (GSS(Octanoyl)FLSPEHQRVQQRKESKKPPAKLQPR; UniProt Q9UBU3 24-51, looked up) [reference compound] | responded | – | – | – |
| desacyl ghrelin (1-15)-NH2: Peptide of the N terminus to the 15th amino acid residue of desacyl ghrelin, the 15th amino acid amidated (GSSFLSPEHQKAQQR-NH2; listed as Rattus norvegicus) | – | increased | – | – |
| desacyl ghrelin: Ghrelin peptide without the acyl (octanoyl) group at the third serine; rat sequence GSSFLSPEHQKAQQRKESKKPPAKLQPR (SEQ ID NO: 3) (PEPTIDE (1)..(28) Amino acid sequence for rat endogenous peptides of growth hormone secretagogue receptor; listed as Rattus norvegicus) | responded | – | increased | increase of intracellular calcium was observed |

— US20090305969A1, “Skin Repair Accelerating Therapeutic Agent Containing Desacyl Ghrelin and Derivatives Thereof as Active Ingredient” (priority 2005, published 2009)
